Measurements reported in US8486991B2, “Enantiomerically pure phosphoindoles as HIV inhibitors” (Idenix Pharmaceuticals, Inc., priority 2006, dated 2013).
“Also recorded” adds a separate entry of the source.

Legend:
[1] = system: stimulated human primary blood mononuclear cells (PBMC); assay: in vitro; details: 3 days
Protocol: Cell viability was determined via MTT staining.

[2] = system: HIV-1 RT K103N mutant enzyme; type: biochemical; details: Table 2; mutant vs wild-type
Excerpt: In Vitro Antiviral Activity Against Additional Mutant HIV RT Enzymes

[3] = system: CYP1A2 (activation of AhR in CYP1A2-DRE cells); assay: CYP1A2 induction screen in CYP1A2-DRE cells; type: cell-based, human; details: extent compared with TCDD, omeprazole, 2-acetylaminofluorene
Excerpt: The potential for in vitro induction of CYP3A4 was screened in DPX2 cells. The DPX2 cell line is a derivative of a human hepatocellular carcinoma cell line (HepG2) transformed with the human pregnane x receptor (PXR) and a reporter gene vector containing the enhancer region of CYP3A4. The potential for in vitro induction of CYP1A2 was screened in CYP1A2-DRE cells. The CYP1A2-DRE cell line is a stably transformed HepG2 cells with dioxin response elements (DRE) and reporter gene containing CYP1A2 promoter elements. The extent of CYP3A4 induction was determined by comparing the activation of PXR obtained with test article to that obtained with rifampicine (potent inducer), mifepristone (moderate inducer) and androstanol (weak inducer). The extent of CYP1A2 induction was determined by comparing the activation of the aryl hydrocarbon receptor (AhR) obtained with test article to that obtained with TCDD (potent inducer), omeprazole (moderate inducer), and 2-acetylaminofluorene (weak inducer).

| Compound | SI values from cytotoxicity and activity data in PBMC [1] | Fold Change, K103N [2] [fold] | Induction, CYP1A2-DRE (CYP1A2) [3] |
| --- | --- | --- | --- |
| CO[P@](=O)(c1cc(C)cc(/C=C/C#N)c1)c1c(C(N)=O)[nH]c2ccc(Cl)c(F)c12 [Compound I, (2-Carbamoyl-5-chloro-4-fluoro-1H-indol-3-yl)-[3-((E)-2-cyano-vinyl)-5-methyl-phenyl]-(R)-phosphinic acid methyl ester] | > 100,000 | 3.2 ± 3.5 |  |
| CO[P@](=O)(c1cc(C)cc(/C=C/C#N)c1)c1c(C(N)=O)[nH]c2ccc(Cl)cc12 [Compound III, (2-Carbamoyl-5-chloro-1H-indol-3-yl)-[3-((E)-2-cyano-vinyl)-5-methyl-phenyl]-(R)-phosphinic acid methyl ester] |  |  | moderate inducers; also recorded: Not inducer (n = 1) |
